Results as given in patent US20040009927A1, “Methods and compounds for reducing biofilm formulation” (priority 2002, published 2004).

Tested on: MG1655 and its csrA mutant TRMG1655, cya mutants and cya wild type
Details: cAMP 2 or 5 mM in growth medium; in most cases

Compound: Nc1ncnc2c1ncn2[C@@H]1O[C@@H]2COP(=O)(O)O[C@H]2[C@H]1O [cAMP, cyclic AMP]
- biofilm formation by cya wild type strains: increased biofilm formation
